Measurements taken from publication PMC8001472, “Novel Selective IDO1 Inhibitors with Isoxazolo[5,4-d]pyrimidin-4(5H)-one Scaffold” (Pharmaceuticals, 2021).

Biological target: T1, hIDO2 (Homo sapiens, UniProt Q6ZQW0)
T1 construct: purchased Vinci-Biochem
T1 sequence (Q6ZQW0 1-407): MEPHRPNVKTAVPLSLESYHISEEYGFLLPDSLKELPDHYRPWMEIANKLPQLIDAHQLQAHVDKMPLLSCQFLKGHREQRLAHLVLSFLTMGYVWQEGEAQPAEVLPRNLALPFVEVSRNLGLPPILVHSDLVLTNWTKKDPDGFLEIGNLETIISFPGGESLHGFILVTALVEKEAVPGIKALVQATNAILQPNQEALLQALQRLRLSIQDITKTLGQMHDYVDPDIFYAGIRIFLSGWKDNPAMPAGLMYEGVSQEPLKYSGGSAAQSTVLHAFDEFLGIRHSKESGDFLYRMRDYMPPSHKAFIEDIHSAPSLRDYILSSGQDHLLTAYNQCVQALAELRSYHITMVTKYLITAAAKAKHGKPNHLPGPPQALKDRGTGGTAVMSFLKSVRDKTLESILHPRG
Assay: hIDO2 inhibitory potency evaluation (fluorescence assay)
Format: biochemical
Method: Additionally, to determine IDO1 selectivity, all final compounds were assayed for their inhibitory potencies towards hIDO2 and hTDO. For this purpose, two new protocols were developed based on the published fluorescence assay for hIDO1 [25]. Sodium ascorbate, methylene blue, and bovine catalase were used in the same concentrations as for hIDO1. 50 mM phosphate buffers with pH values of 7.5 and 7.0 were used for hIDO2 and hTDO, respectively, as has been already mentioned before. First, the activities of hIDO2 and hTDO were determined at four different concentrations. […] Additionally, the effect of DMSO concentration on enzyme activity was investigated. […] The optimal hIDO2 and hTDO assay concentrations of the substrate L-Trp were determined to be 4 mM and 500 μM, respectively.
Activity of the compounds on hIDO2 was determined according to the previously reported fluorescence protocol for hIDO1 [25] and reported absorbance protocols for hIDO2 [30, 36] with several modifications. Recombinant hIDO2 was purchased from Vinci-Biochem (Vinci-Biochem, Srl, Vinci, Italy), bovine catalase was purchased from Sigma-Aldrich (Sigma-Aldrich, St. Louis, MO, USA). Prior to the measurement of activity for compounds, the enzyme activity was determined and optimal assay enzyme concentration was selected. The amounts of reagents needed to perform the assay were optimized. Briefly, the reagents needed were dissolved in 50 mM potassium phosphate buffer (pH 7.5, 0.01%, v/v Tween 20), the reaction was performed in black 384-well microplates. After the addition of 1 μL of 100 mM sodium ascorbate neutralized with an equimolar amount of 1M NaOH, 1 μL of 100 μM methylene blue, 1 μL of 1 mg/mL bovine catalase, 0.5 μL of DMSO (negative control) or solution of a compound in DMSO, 5 μL of […] hIDO2 and 1.5 μL of 26.7 mM L-Trp were added and the microplate was incubated for 60 min at 37 °C. The reaction was quenched with the addition of 10 μL of 400 mM piperidine solution in MilliQ water and the formation of the examined fluorophore began following incubation at 65 °C for 20 min. The production of NFK-derived fluorophore (λEX = 400 nm, λEM = 500 nm) was measured using a microplate reader (Synergy H4; BioTek Instruments, Inc., Winooski, VT, USA) after 60 min post-incubation at room temperature. In the preliminary testing compounds were tested at 100 μM with activities determined as residual activities—RA, which were calculated to% of inhibition, presented in Table 1 and Table 2. (% of inhibition = 100% − RA). All determinations were carried out in duplicates.

## O=C(Cn1cnc2onc(-c3ccc(F)cc3)c2c1=O)Nc1ccc(C(F)(F)F)cc1 [Compound 23]
  hIDO2 inhibition (in words): no activity
